Read-outs that look alike come from different tables or passages of the source.
Experiments:
EOC2 cell = test: Cell proliferation assay, EOC2; type: cell-based, mouse
CSF-1R = CSF-1R (Homo sapiens (Human), UniProt P07333); test: Biochemical HTRF kinase assay, CSF-1R; details: Table 2; recombinant human CSF-1R;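 further: enzyme incubated with inhibitor plus a substrate and ATP mix for one hour at room temperature before HTRF detection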
[1] = system: Ba/F3_CSF-1R (stably expressing human CSF-1R kinase); test: Cell proliferation assay, Ba/F3_CSF-1R; type: cell-based
[2] = Mus musculus, 72 h, EOC2 cells, 72 hours treatment, read-out: ECO2 EC50
[3] = BaF3, 72 h, Ba/F3_CSF-1R cells, 72 hours treatment, read-out: CSF-1R BaF3 EC50
[4] = BaF3, 72 h, read-out: CSF-1R BaF3 EC50 (nM)
[5] = EOC2 cells, 72 hours treatment, read-out: ECO2 EC50
[6] = Ba/F3_CSF-1R cells, 72 hours treatment, read-out: CSF-1R BaF3 EC50

Chain of CSF-1R (P07333 20-972): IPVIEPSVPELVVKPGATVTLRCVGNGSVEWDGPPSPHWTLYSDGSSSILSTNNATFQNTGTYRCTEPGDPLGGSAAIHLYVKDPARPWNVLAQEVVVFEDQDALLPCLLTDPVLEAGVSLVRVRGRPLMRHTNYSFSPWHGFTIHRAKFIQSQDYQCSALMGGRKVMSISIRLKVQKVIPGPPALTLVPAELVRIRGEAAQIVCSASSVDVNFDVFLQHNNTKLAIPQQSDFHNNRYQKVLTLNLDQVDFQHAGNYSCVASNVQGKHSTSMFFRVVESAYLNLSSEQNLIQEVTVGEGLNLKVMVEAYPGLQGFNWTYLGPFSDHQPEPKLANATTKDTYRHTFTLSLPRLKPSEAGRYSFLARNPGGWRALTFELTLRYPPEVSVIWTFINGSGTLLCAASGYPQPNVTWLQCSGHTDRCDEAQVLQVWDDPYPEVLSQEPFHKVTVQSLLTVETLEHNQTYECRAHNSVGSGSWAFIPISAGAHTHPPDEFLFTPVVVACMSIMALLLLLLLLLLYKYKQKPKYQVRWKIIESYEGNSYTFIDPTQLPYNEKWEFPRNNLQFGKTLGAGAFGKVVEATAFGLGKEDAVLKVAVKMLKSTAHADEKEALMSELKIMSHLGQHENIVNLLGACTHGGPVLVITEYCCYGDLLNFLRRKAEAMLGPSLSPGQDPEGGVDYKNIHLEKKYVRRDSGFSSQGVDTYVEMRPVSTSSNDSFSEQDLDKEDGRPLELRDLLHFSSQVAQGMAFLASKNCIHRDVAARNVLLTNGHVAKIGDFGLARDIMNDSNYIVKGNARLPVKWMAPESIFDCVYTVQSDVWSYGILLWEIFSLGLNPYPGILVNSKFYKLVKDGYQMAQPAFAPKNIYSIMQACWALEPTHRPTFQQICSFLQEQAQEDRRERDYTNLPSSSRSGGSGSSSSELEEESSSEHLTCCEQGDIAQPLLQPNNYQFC

## COc1ccc(COc2ncc(C(C)c3ccnc4cc(OC)cnc34)cc2OC)nc1 (centres unmarked) [Example 77]
EOC2 cell; [2]
  EC50: 360 nM
CSF-1R
  IC50: 101 nM
[1]; [3]
  EC50: 543 nM

## COc1cnc2c(Cc3cnc(OCc4cnc(OC)nc4)c(OC)c3)ccnc2c1 [Example 50]
EOC2 cell; [2]
  EC50: 312 nM
CSF-1R
  IC50: 15.2 nM
[1]; [3]
  EC50: 481 nM

## COc1ccc(COc2ncc(Cc3ccnc4cc(-c5cccnc5)cnc34)cc2OC)nc1 [Example 140, 8-((5-methoxy-6-((5-methoxypyridin-2-yl)methoxy)pyridin-3-yl)methyl)-3-(pyridin-3-yl)-1,5-naphthyridine]
EOC2 cell; [2]
  EC50: 10.6 nM
CSF-1R
  IC50: 9.4 nM
[1]; [4]
  EC50: 9.8 nM

## COc1cnc2c(Cc3cnc(OCc4ccc(C5COC5)cn4)c(OC)c3)ccnc2c1 [Example 76]
EOC2 cell; [2]
  EC50: 82.1 nM
CSF-1R
  IC50: 13.6 nM
[1]; [3]
  EC50: 302 nM

## COc1ccc(COc2ncc(Cc3ccnc4cc(C#N)cnc34)cc2OC)nc1 [Example 65, 8-((5-methoxy-6-((5-methoxypyridin-2-yl)methoxy)pyridin-3-yl)methyl)-1,5-naphthyridine-3-carbonitrile]
EOC2 cell; [2]
  EC50: > 1000 nM
CSF-1R
  IC50: 26.9 nM
[1]; [3]
  EC50: 787 nM

## COc1ccc(COc2ncc(Cc3ccnc4cc(C5CC5)cnc34)cc2OC)nc1 [Example 137]
EOC2 cell; [2]
  EC50: 65 nM
[1]; [3]
  EC50: 46.7 nM

## COc1cnc2c(Cc3ccc4nc(C5CCOCC5)cnc4c3)ccnc2c1 [Example 157]
EOC2 cell; [2]
  EC50: > 1000 nM
CSF-1R
  IC50: 543 nM
[1]; [3]
  EC50: > 1000 nM

## COc1cnc2c(Cc3ccc4nc([C@H]5CC[C@@H](OC)CC5)cnc4c3)ccnc2c1 [Example 155]
EOC2 cell; [5]
  EC50: > 1000 nM
CSF-1R
  IC50: 258 nM
[1]; [6]
  EC50: 607 nM

## COc1ccc(COc2ccc(Cc3ccnc4cc(OC)ccc34)cc2OC)cc1 [Example 1]
EOC2 cell; [2]
  EC50: 42 nM
[1]; [3]
  EC50: 42.6 nM

## COc1cnc2c(Cc3cnc(OCc4cc5n(n4)CCO[C@H]5C)c(OC)c3)ccnc2c1 (stereo in doubt) [Example 114]
EOC2 cell; [5]
  EC50: 37.9 nM
CSF-1R
  IC50: 1.7 nM
[1]; [6]
  EC50: 75.7 nM

## COc1ccc(COc2ncc(Cc3ccnc4cc(N5CC(F)(F)C5)cnc34)cc2OC)nc1 [Example 144]
EOC2 cell; [2]
  EC50: 25.3 nM
CSF-1R
  IC50: 11.3 nM
[1]; [3]
  EC50: 10.7 nM

## COc1cnc2c(Cc3cnc(OCc4cc5n(n4)CCO[C@H]5C)c(OC)c3)ccnc2c1 (stereo in doubt) [Example 115]
EOC2 cell; [5]
  EC50: 81.9 nM
CSF-1R
  IC50: 4 nM
[1]; [6]
  EC50: 158 nM

## COc1ccc2c(Cc3ccc(OCc4ccn5nccc5c4)c(OC)c3)ccnc2c1 [Example 30]
EOC2 cell; [2]
  EC50: 249 nM
CSF-1R
  IC50: 7.9 nM
[1]; [3]
  EC50: 214 nM

## COc1ccc(COc2ncc(Cc3ccnc4cc(F)cnc34)cc2OC)nc1 [Example 64]
EOC2 cell; [2]
  EC50: 973 nM
CSF-1R
  IC50: 21.8 nM
[1]; [3]
  EC50: 400 nM

## COc1ccc(COc2ncc(Cc3ccnc4cncnc34)cc2OC)nc1 [Example 22, 8-((5-methoxy-6-((5-methoxypyridin-2-yl)methoxy)pyridin-3-yl)methyl)pyrido[3,2-d]pyrimidine]
CSF-1R
  IC50: 64 nM
[1]; [3]
  EC50: > 1000 nM

## COc1cnc2c(Cc3cnc(OCc4cc5n(n4)CCOC5(C)C)c(OC)c3)ccnc2c1 [Example 99]
EOC2 cell; [2]
  EC50: 51.7 nM
CSF-1R
  IC50: 5.6 nM
[1]; [3]
  EC50: 59.1 nM

## COc1ccc(COc2ncc(C(F)c3ccnc4cc(OC)cnc34)cc2OC)nc1 (centres unmarked) [Example 84, 8-(fluoro(5-methoxy-6-((5-methoxypyridin-2-yl)methoxy)pyridin-3-yl)methyl)-3-methoxy-1,5-naphthyridine]
EOC2 cell; [2]
  EC50: > 1000 nM
CSF-1R
  IC50: 28.4 nM
[1]; [3]
  EC50: > 1000 nM

## COc1ccc(COc2ncc(Cc3ccnc4cc(N5CC6CC(C5)O6)cnc34)cc2OC)nc1 [Example 131]
EOC2 cell; [2]
  EC50: 6.7 nM
[1]; [3]
  EC50: 9.9 nM

## COc1ccc2c(Cc3ccc(OCc4ccncc4)c(OC)c3)ccnc2c1 [Example 10]
CSF-1R
  IC50: 118 nM
[1]; [3]
  EC50: > 1000 nM

## COc1cnc2c(Cc3cnc(OCc4cnc5c(c4)CC[C@H]5OC)c(OC)c3)ccnc2c1 (stereo in doubt) [Example 105]
EOC2 cell; [5]
  EC50: 65 nM
CSF-1R
  IC50: 2.4 nM
[1]; [6]
  EC50: 108 nM

## COc1cnc2c(Cc3cnc(OCc4ccc(OC)nc4)c(OC)c3)ccnc2c1 [Example 39]
EOC2 cell; [2]
  EC50: 32.1 nM
CSF-1R
  IC50: 1 nM
[1]; [3]
  EC50: 46.5 nM

## COc1ccc2c(Cc3cnc(OCc4cnn(C)c4)c(OC)c3)ccnc2c1 [Example 31]
EOC2 cell; [2]
  EC50: > 1000 nM
CSF-1R
  IC50: 21.3 nM
[1]; [3]
  EC50: > 1000 nM

## COc1cnc2c(Cc3cnc(OCc4cc5n(n4)CC4(CC4)C5)c(OC)c3)ccnc2c1 [Example 108]
EOC2 cell; [2]
  EC50: 23.7 nM
CSF-1R
  IC50: 1.9 nM
[1]; [3]
  EC50: 37.6 nM

## COc1cnc2c(Cc3cnc(OCc4cc(C5CC5)n(C)n4)c(OC)c3)ccnc2c1 [Example 109]
EOC2 cell; [2]
  EC50: 43.7 nM
CSF-1R
  IC50: 1.1 nM
[1]; [3]
  EC50: 102 nM

## COc1ccc2c(Cc3ccc(OCc4nc5ccccc5n4C)c(OC)c3)ccnc2c1 [Example 11]
CSF-1R
  IC50: 149 nM
[1]; [3]
  EC50: > 1000 nM

## COc1cnc2c(Cc3cnc(OCc4cc(C)n(C5CN(C)C5)n4)c(OC)c3)ccnc2c1 [Example 91]
EOC2 cell; [2]
  EC50: 388 nM
CSF-1R
  IC50: 40.6 nM
[1]; [3]
  EC50: 753 nM

## COc1cnc2c(Cc3cnc(OCc4cc5n(n4)CCCO5)c(OC)c3)ccnc2c1 [Example 86]
EOC2 cell; [2]
  EC50: 183 nM
CSF-1R
  IC50: 4.4 nM
[1]; [3]
  EC50: 290 nM

## COc1cnc2c(Cc3cnc(OCc4cc5n(n4)CCOC5C)c(OC)c3)ccnc2c1 (centres unmarked) [Example 98]
EOC2 cell; [2]
  EC50: 54.7 nM
CSF-1R
  IC50: 4.7 nM
[1]; [3]
  EC50: 57.3 nM

## COc1ccc2c(Cc3ccc(OCc4ccn(C)c(=O)c4)c(OC)c3)ccnc2c1 [Example 25]
CSF-1R
  IC50: 40 nM
[1]; [3]
  EC50: 583 nM

## COc1ccc(COc2ncc(Cc3ccnc4cc(Cl)cnc34)cc2OC)nc1 [Example 62, 3-chloro-8-((5-methoxy-6-((5-methoxypyridin-2-yl)methoxy)pyridin-3-yl)methyl)-1,5-naphthyridine]
EOC2 cell; Mus musculus, 72 h, read-out: ECO2 EC50 (nM)
  EC50: 496 nM
[1]; [4]
  EC50: 177 nM

## COc1ccc2c(Cc3ccc(OCc4ccccc4OC)c(OC)c3)ccnc2c1 [Example 29]
CSF-1R
  IC50: 73.9 nM
[1]; [3]
  EC50: 873 nM

## COc1ccc2c(Cc3ccc(OCc4cc(C)nn4C)c(OC)c3)ccnc2c1 [Example 23]
CSF-1R
  IC50: 8 nM
[1]; [3]
  EC50: 323 nM

## COc1ccc2c(Cc3ccc(OCc4cccnc4)c(OC)c3)ccnc2c1 [Example 8]
[1]; [3]
  EC50: 546 nM

## COc1ccc(COc2ncc(Cc3ccnc4cnccc34)cc2OC)nc1 [Example 19, 4-((5-methoxy-6-((5-methoxypyridin-2-yl)methoxy)pyridin-3-yl)methyl)-1,7-naphthyridine]
CSF-1R
  IC50: 47.6 nM
[1]; [3]
  EC50: > 1000 nM

## COc1cnc2c(Cc3ccc4nc(N5CCC(OC)CC5)cnc4c3)ccnc2c1 [Example 153, 3-methoxy-8-[[2-(4-methoxy-1-piperidyl)quinoxalin-6-yl]methyl]-1,5-naphthyridine]
EOC2 cell; [2]
  EC50: > 1000 nM
[1]; [3]
  EC50: > 1000 nM

## COc1ccc2c(Cc3ccc(OCc4ccc5cnn(C)c5c4)c(OC)c3)ccnc2c1 [Example 12]
CSF-1R
  IC50: 299 nM
[1]; [3]
  EC50: > 1000 nM

## COc1ccc2c(Cc3ccc(OCc4ccccn4)c(OC)c3)ccnc2c1 [Example 9]
CSF-1R
  IC50: 169 nM
[1]; [3]
  EC50: 901 nM

## COc1ccc(COc2ncc(Cc3ccnc4cc(OC)ccc34)cc2OC)nc1 [Example 13, 7-methoxy-4-((5-methoxy-6-((5-methoxypyridin-2-yl)methoxy)pyridin-3-yl)methyl)quinolone]
EOC2 cell; [2]
  EC50: 151 nM
[1]; [3]
  EC50: 176 nM

## COc1ccc2c(Cc3ccc(OCc4ccc(=O)n(C)c4)c(OC)c3)ccnc2c1 [Example 26]
CSF-1R
  IC50: 5 nM
[1]; [3]
  EC50: 283 nM

## COc1ccc2c(Cc3ccc(OCc4cccc(C(F)(F)F)c4)c(OC)c3)ccnc2c1 [Example 27]
CSF-1R
  IC50: 117 nM
[1]; [3]
  EC50: 207 nM

## COc1cnc2c(Cc3cnc(OCc4cnn(C)c4)c(OC)c3)ccnc2c1 [Example 37]
EOC2 cell; [2]
  EC50: > 1000 nM
[1]; [3]
  EC50: > 1000 nM

## COc1ccc(COc2ccc(Cc3ccnc4ccccc34)cc2OC)cc1 [Example 3]
[1]; [3]
  EC50: 89.2 nM

## COc1cccc(COc2ccc(Cc3ccnc4cc(OC)ccc34)cc2OC)c1 [Example 28]
CSF-1R
  IC50: 25.7 nM
[1]; [3]
  EC50: 356 nM

## COc1ccc(COc2ncc(Cc3ccnc4cc(N5CCOCC5)cnc34)cc2OC)nc1 [Example 119, 4-(8-((5-methoxy-6-((5-methoxypyridin-2-yl)methoxy)pyridin-3-yl)methyl)-1,5-naphthyridin-3-yl)morpholine]
EOC2 cell; [2]
  EC50: 8 nM
[1]; [3]
  EC50: 15.9 nM

## COc1cnc2c(Cc3cnc(OCc4ccc(Cl)cn4)c(OC)c3)ccnc2c1 [Example 58]
EOC2 cell; [2]
  EC50: 42.9 nM
[1]; [3]
  EC50: 93.9 nM

Source: US20250360145A1, “CSF-1R INHIBITORS AND USES THEREOF” (Myrobalan Therapeutics, Inc., priority 2022, published 2025)
